Test results reported in article PMC4750079, “Tackling amyloidogenesis in Alzheimer’s disease with A2V variants of Amyloid-β” (Scientific Reports, 2016).
Where a SMILES comes first, the peptide text is derived from it. [ ]: non-standard residue; d: D form.

Assays:
[1] = Brain levels after intraperitoneal administration (HPLC-MS/MS); assay type: in vivo; conditions: mice
Procedure: APP23 mice (Harlan, Correzzana, Italy) were treated by intraperitoneal injection with Aβ1-6A2VTAT(D) (10 mg/kg) or vehicle (saline solution) and sacrificed 1 h or 24 h after the last treatment. Aβ1-6A2VTAT(D) was quantified in mouse brain using HPLC-MS/MS[45]. The stability of Aβ1-6A2VTAT(D) to protease digestion was also investigated by MALDI TOF MS (See Supplementary Information for details).
To verify Aβ1-6A2VTAT(D) distribution in vivo, and particularly its bioavailability in the brain, we determined Aβ1-6A2VTAT(D) levels in mice brains after i.p. injection at a dose of 10 mg/kg. Mice were sacrificed at two intervals (1 h, 24 h). Aβ1-6A2VTAT(D) was then quantified in mouse brain using HPLC-MS/MS.
The quantitative levels of Aβ1-6A2VTAT(D) in the brain were determined by following a previously described procedure ^4.
Supplementary Figure 4S Aβ1-6A2VTAT(D) levels in mouse brain (n=4). Data are reported as mean ± SEM of peptide/mg tissue. Animals were treated i.p. at a dose of 10 mg/kg. Animals were sacrificed 1 h or 24 h after last administration following 21 […] treatments (*p < 0.05 T1-1h vs T1-24h and Student’s t-test).

huAPPSwe/moAPP0/0 mice = assay: Pilot preclinical study in huAPPSwe/moAPP0/0 mice; assay type: in vivo, mouse
Procedure: Transgenic APP23 mice expressing the Swedish double mutation in the human APP gene[46] and knock-out for endogenous APP (huAPP^Swe/moAPP^0/0) were generated in our lab by crossing APP23 mice with APP^0/0 animals. Mice (n = 6) were treated intraperitoneally (i.p.) every day for 21 days with Aβ1-6A2VTAT(D) (10 mg/kg) or saline solution and culled 24 h after the last treatment.
(§1) The left hemisphere of each brain was homogenized in 7 volumes of 10 mM Tris-HCl, pH 7.4, added with cOmplete Mini Protease Inhibitors cocktail (Roche), sonicated for 1 min using an ultrasonic homogenizer (SONOPULS) and centrifuged at 100,000 xg for 1 h at 4 °C. The supernatant was saved as the soluble fraction; the pellet was extracted in 70% formic acid and neutralized with 20 volumes of 1 M Tris (insoluble fraction).
(§2) Aβ40, Aβ42 and aggregated Aβ were measured in both soluble and insoluble fractions by ELISA (Invitrogen). Each experiment was performed in triplicate. The analysis of APP processing followed the protocol described above. After centrifugation, the supernatant was collected as the SDS-soluble fraction, which was analyzed by western blot with the A8717 antibody (Sigma). Signal intensity of the bands was measured by Quantity One (BioRad).
(§3) Coronal slices of the right hemibrain were embedded in paraffin and cut (7μm); sections were de-waxed in xylene and hydrated through serial alcohols to water. After formic acid (80%) pre-treatment, sections were incubated overnight with anti-Aβ antibody (4G8, 1:4000; Covance). The primary antibody signal was detected with a biotinylated secondary antibody followed by horseradish streptavidin peroxidase and visualized with DAB. Amyloid deposition was quantified in mouse brain using Aβ immunostaining (4G8) and the staining intensity was evaluated semiquantitatively using a scale range from 0 to 5 by light microscopy. The assessment was conducted in two adjacent sections of the same brain area[49]. A parallel quantification of the Aβ plaque load was performed using image analysis software (NIS-elements-Nikon)[50][51][52].

APPswe/PS1dE9 mice = assay: Treatment of APPswe/PS1dE9 mice; assay type: in vivo, mouse; conditions: for amyloid burden (plaque count, area fraction): 4G8 immunohistochemistry
Source text: Heterozygous four-month-old female APPswe/PS1dE9 transgenic mice were used in this study. These mice express human APP carrying the Swedish mutation together with human presenilin 1 (PS1) carrying the pathogenic dE9 mutation. Animals were divided in 2 experimental groups (n = 10 each), treated i.p. once a week with saline solution or Aβ1-6A2VTAT(D) and culled 2.5 (intermediate time) and 5 months (final time) after treatment. In both mouse transgenic lines, the brain was removed and dissected into 2 hemibrains by midsagittal dissection. One half was immediately stored at […] for biochemical assays, the other immediately immersed in formalin (10%) overnight for immunohistochemical studies.
The Novel Object Recognition test (NOR) was used to examine the cognitive performance of animal models involved in preclinical studies, following well consolidated protocols. The results of the NOR were expressed by using:
- Discrimination index (time exploring novel object - time exploring familiar object)/(time exploring novel object + time exploring familiar object).
- Recognition index (RI): time exploring novel object/(time exploring novel object + time exploring familiar object) %.
as §1, §2, §3

[2] = i.p. daily for 21 days, vs saline, ELISA
[3] = i.p. 10 mg/kg once a week for 2.5 months, vs saline, ELISA
[4] = i.p. 10 mg/kg once a week for 5 months, vs saline

Which tissue level at time at 1 h ([1]; APP23, mouse, brain, ip, i.p. 10 mg/kg once a week for five months (21 weekly treatments), 1 h, HPLC-MS/MS, mean ± SEM, n=4, read-out: brain levels 1 h after last treatment) does the source give for `CC(C)[C@@H](NC(=O)[C@H](N)CC(=O)O)C(=O)N[C@H](CCC(=O)O)C(=O)N[C@H](Cc1ccccc1)C(=O)N[C@H](CCCNC(=N)N)C(=O)N[C@H](Cc1c[nH]cn1)C(=O)NCC(=O)NCC(=O)NCC(=O)NCC(=O)NCC(=O)N[C@H](CCCNC(=N)N)C(=O)N[C@H](CCCCN)C(=O)N[C@H](CCCCN)C(=O)N[C@H](CCCNC(=N)N)C(=O)N[C@H](CCCNC(=N)N)C(=O)N[C@H](CCC(N)=O)C(=O)N[C@H](CCCNC(=N)N)C(=O)N[C@H](CCCNC(=N)N)C(=O)N[C@H](CCCNC(=N)N)C(=O)O` [Aβ1-6A2VTAT(D)] (H-[dD][dV][dE][dF][dR][dH]GGGGG[dR][dK][dK][dR][dR][dQ][dR][dR][dR]-OH; N-terminus assumed) here?
The tissue level at time at 1 h was 145 ± 38.3 ng/g.

What about the tissue level at time at 24 h ([1]; APP23, mouse, brain, ip, i.p. 10 mg/kg once a week for five months (21 weekly treatments), 24 h, HPLC-MS/MS, mean ± SEM, n=4, read-out: brain levels 24 h after last treatment) of the same compound?
Its tissue level at time at 24 h is 62 ± 28.7 ng/g.

And the “ability to cross the BBB” value ([1]; i.p. administration)?
Its value is “able to cross the BBB”.

And the intracerebral amyloid deposits (huAPPSwe/moAPP0/0 mice; 13-month-old mice, i.p. once a day for 3 weeks, 4G8 immunohistochemistry, plaque count)?
Its intracerebral amyloid deposits is “decrease of intracerebral amyloid deposits”.

What about the “effects on APP processing (C99:C83 ratio), short-term” value (huAPPSwe/moAPP0/0 mice; after 3 weeks of treatment, western blot) of the same compound?
Its value is “not observed after short-term treatment schedules”.

What about the “Aβ42 in the soluble fraction and Aβ40, Aβ42 and aggregated Aβ in the insoluble fraction” value (huAPPSwe/moAPP0/0 mice; [2]) of the same compound?
Its value is “not significantly lower”.

And the “brain Aβ40 levels in the soluble fraction” value (huAPPSwe/moAPP0/0 mice; [2])?
Its value is “reduction of Aβ40 levels in the soluble fraction”.

And the “brain aggregated Aβ (soluble fraction)” value (huAPPSwe/moAPP0/0 mice; [2])?
Its value is “decrease in aggregated Aβ”.

What about the “effects on APP processing (C99:C83 ratio), short-term” value (APPswe/PS1dE9 mice; after 2.5 months of treatment, western blot) of the same compound?
Its value is “not observed after short-term treatment schedules”.

And the “side effect on brain (neuropathologic studies)” value (APPswe/PS1dE9 mice; chronic treatment, data not shown)?
The value was “did not result in any evident side effect on brain”.

What about the “Novel Object Recognition test scores” value (APPswe/PS1dE9 mice; i.p. 10 mg/kg once a week for 2.5 months) of the same compound?
The value was “small, albeit not statistically significant, improvement”.

What about the “amyloid burden (plaque count, area fraction)” value (APPswe/PS1dE9 mice; i.p. 10 mg/kg once a week for 2.5 months, vs saline) of the same compound?
Its value is “reduction of amyloid burden”.

What about the “brain Aβ40” value (APPswe/PS1dE9 mice; [3]) of the same compound?
Its value is “not changed compared to controls”.

What about the “brain Aβ42 in the insoluble fraction” value (APPswe/PS1dE9 mice; [3]) of the same compound?
Its value is “concomitant decrease in the insoluble fraction”.

And the “brain Aβ42 in the soluble fraction” value (APPswe/PS1dE9 mice; [3])?
The value was “increase of Aβ42 in the soluble fraction”.

And the “brain aggregated Aβ, soluble and insoluble fraction” value (APPswe/PS1dE9 mice; [3])?
The value was “reduced in both the compartments”.

What about the “Novel Object Recognition test, recognition and discrimination indexes” value (APPswe/PS1dE9 mice; [4]) of the same compound?
Its value is “preserved cognitive function”.

What about the “amyloid burden (plaque count, area fraction)” value (APPswe/PS1dE9 mice; [4]) of the same compound?
Its value is “unexpectedly increased”.

And the “brain Aβ levels (Aβ40, Aβ42, aggregated Aβ)” value (APPswe/PS1dE9 mice; i.p. 10 mg/kg once a week for 5 months, vs saline, ELISA)?
The value was “no significant difference compared to mice treated with saline solution”.

And the “C99:C83 ratio in brain (APP processing)” value (APPswe/PS1dE9 mice; i.p. every 7 days for 5 months, western blot densitometry)?
Its value is “increase in the C99:C83 ratio”.
